Measurements taken from patent US9856270B2, “Dolutegravir salts” (Ratiopharm GmbH, priority 2013, dated 2018).
Counter-ions that a name gives are not always drawn. Each block holds one molecule with its values, some of them ahead of it.

Columns and labels:
Assay type in all cases: physicochemical
[1] = Determination of the dissolution, 1st experiment (approx. 350 mg in 5 ml solvent, 37° C., approx. 500 rpm, HPLC/UV); conditions: for concentration: 37° C.
Method: (§1) In the following examples, anhydrous Dolutegravir Na as disclosed in WO2010068253 is employed.
(§2) Approx. 350 mg test substance was weighed into a glass vial, followed by addition of 5 ml solvent. A stirring bar was added, the vial was fixed in a water bath at 37° C. and the suspension was stirred with approx. 500 rpm. After 1 h and 24 h, samples were withdrawn, filtered through a 0.2 μm disposable filter, 50 μl of the clear filtrate were diluted with 950 μl DMSO and 2 μl thereof were analyzed by HPLC/UV.
(§3) HPLC/UV-Method for Quantification of Dolutegravir • Instrument: Agilent 1200 (G3324) • Method: DOLUTEGRAVIR-SOL-G3324.M • Column: YMC Triart C18, 100*3.0 mm, 3.0μ • Flow: 0.6 ml/min. • Temperature: 40.0° C. • Eluent • A: acetonitrile • B: 0.2% formic acid+0.1% Heptafluorobutyric acid (HFBA)
(§4) A calibration curve was established by linear regression analysis of concentration/peak area data pairs obtained by twofold analysis of a set of calibration solutions containing dolutegravir at concentrations between 10 μg/ml and 1,000 μg/ml. In case that the peak area of dolutegravir in an analyzed sample exceeded the upper limit of the calibration range, the sample was diluted and re-analyzed.

[2] = Storage stability of solid state forms (polymorphic conversion, XRPD)
[3] = Determination of the dissolution, 2nd experiment (approx. 210 mg in 3 ml solvent, 37° C., approx. 250 rpm, HPLC/UV)
Method: as §1
as §2, with “Approx. 210” for “Approx. 350”, “of 3” for “of 5”, “approx. 250” for “approx. 500”, “After 5, 15” for “After 1 h”, “and 60 min,” for “and 24 h,”
as §3, §4

[4] = Dissolution profile of tablet formulations (900 ml 0.1 N HCl, paddle, 100 rpm, 37° C.); conditions: tablets, FIG. 24
Method: The dissolution profile of the above potassium salt formulation in 900 ml of 0.1 N HCl, paddle (no sinker) at 100 rpm, 37° C. was tested. An aqueous solution comprising Pharmacoat 603 was prepared. The active, Granulac 200, SDS, Avicel PH 101 and Ac-Di-Sol were granulated with the before prepared solution. The obtained granules were sieved through 1650 μm mesh size and subsequently dried at 40° C. After sieving the dried granules through 630 μm mesh size, Prosolv and Ac-Di-Sol were added. The mixture was blended for 10 minutes in a Turbula […] tumble mixer. After addition of Magnesium stearate, blending was continued for 3 minutes. Finally, the blend was compressed into tablets on an eccentric press Ek0 with a 9 mm tablet punch. The dissolution profile of the above sodium salt formulation in 900 ml of 0.1 N HCl, paddle (no sinker) at 100 rpm, 37° C. was tested.

[5] = solvent 50 mM KH2PO4, pH 6.8, 5 min, potassium salt
[6] = solvent 50 mM KH2PO4, pH 6.8, 15 min, potassium salt
[7] = solvent 50 mM KH2PO4, pH 6.8, 60 min, potassium salt
[8] = solvent 0.1 N HCl, 5 min, potassium salt
[9] = solvent 0.1 N HCl, 15 min, potassium salt
[10] = solvent 0.1 N HCl, 60 min, potassium salt
[11] = solvent demineralized water, 5 min, potassium salt
[12] = solvent demineralized water, 15 min, potassium salt
[13] = solvent demineralized water, 60 min, potassium salt

stable under storage conditions (time) ([2]; 25° C. and 60% RH, 30° C. and 65% RH and 40° C. and 75% RH): at least 8 weeks | concentration [3, 5]: 22000 µg/mL | concentration [3, 6]: 23900 µg/mL | concentration [3, 7]: 23300 µg/mL | concentration [3, 8]: 80 µg/mL | concentration [3, 9]: 23780 µg/mL | concentration [3, 10]: 25930 µg/mL | concentration [3, 11]: 39500 µg/mL | concentration [3, 12]: 44000 µg/mL | concentration [3, 13]: 44100 µg/mL
Compound: C[C@@H]1CCO[C@H]2Cn3cc(C(=O)NCc4ccc(F)cc4F)c(=O)c(O)c3C(=O)N12 [Dolutegravir-K (Form VII), Dolutegravir potassium salt]

concentration ([1]; solvent 20 mM Sodium acetate (NaAc) pH 4.5, 1 h): 595 µg/mL | concentration ([1]; solvent 20 mM Sodium acetate (NaAc) pH 4.5, 24 h): 634 µg/mL | concentration ([1]; solvent 50 mM KH2PO4 pH 6.8, 1 h): 894 µg/mL | concentration ([1]; solvent 50 mM KH2PO4 pH 6.8, 24 h): 918 µg/mL | concentration ([1]; solvent 0.1M HCl pH1.2, 1 h): 84 µg/mL | concentration ([1]; solvent 0.1M HCl pH1.2, 24 h): 412 µg/mL | concentration ([3]; solvent 50 mM KH2PO4, pH 6.8, 5 min): 270 µg/mL | concentration ([3]; solvent 50 mM KH2PO4, pH 6.8, 15 min): 1190 µg/mL | concentration ([3]; solvent 50 mM KH2PO4, pH 6.8, 60 min): 1240 µg/mL | concentration ([3]; solvent 0.1 N HCl, 5 min, listed as Dolutegravir-Na (anhydrous)): 330 µg/mL | concentration ([3]; solvent 0.1 N HCl, 15 min, listed as Dolutegravir-Na (anhydrous)): 420 µg/mL | concentration ([3]; solvent 0.1 N HCl, 60 min, listed as Dolutegravir-Na (anhydrous)): 400 µg/mL | concentration ([3]; solvent demineralized water, 5 min): 3300 µg/mL | concentration ([3]; solvent demineralized water, 15 min): 3430 µg/mL | concentration ([3]; solvent demineralized water, 60 min): 3500 µg/mL
Compound: C[C@@H]1CCO[C@H]2Cn3cc(C(=O)NCc4ccc(F)cc4F)c(=O)c(O)c3C(=O)N12 [Dolutegravir-Na, reference compound]

dissolution compared to the sodium salt ([1]; under certain conditions as depicted in Example 9): improved dissolution | dissolution rate of a pharmaceutical composition compared to the sodium salt [4]: faster and/or higher dissolution rate
Compound: C[C@@H]1CCO[C@H]2Cn3cc(C(=O)NCc4ccc(F)cc4F)c(=O)c(O)c3C(=O)N12 [Dolutegravir potassium salt]

stable upon storage (time) ([2]; 45° C./75% relative humidity): at least 8 weeks
Compound: C[C@@H]1CCO[C@H]2Cn3cc(C(=O)NCc4ccc(F)cc4F)c(=O)c(O)c3C(=O)N12 [Dolutegravir potassium form IV, Dolutegravir potassium salt]

Further lines, the molecule ahead of its results:

Compound: C[C@@H]1CCO[C@H]2Cn3cc(C(=O)NCc4ccc(F)cc4F)c(=O)c(O)c3C(=O)N12 [Dolutegravir-K (Form VI), Dolutegravir potassium salt]
concentration ([1]; solvent 20 mM Sodium acetate (NaAc) pH 4.5, 1 h, potassium salt): 21770 µg/mL | concentration ([1]; solvent 20 mM Sodium acetate (NaAc) pH 4.5, 24 h, potassium salt): 16930 µg/mL | concentration ([1]; solvent 50 mM KH2PO4 pH 6.8, 1 h, potassium salt): 32580 µg/mL | concentration ([1]; solvent 50 mM KH2PO4 pH 6.8, 24 h, potassium salt): 33440 µg/mL | concentration ([1]; solvent 0.1M HCl pH1.2, 1 h, potassium salt): 20350 µg/mL | concentration ([1]; solvent 0.1M HCl pH1.2, 24 h, potassium salt): 20270 µg/mL

Compound: C[C@@H]1CCO[C@H]2Cn3cc(C(=O)NCc4ccc(F)cc4F)c(=O)c(O)c3C(=O)N12 [Dolutegravir-K (amorphous), Dolutegravir potassium salt]
stable under storage condition (time) ([2]; 40° C./75% RH): at least 12 weeks | concentration [3, 5]: 39100 µg/mL | concentration [3, 6]: 40900 µg/mL | concentration [3, 7]: 60100 µg/mL | concentration [3, 8]: 300 µg/mL | concentration [3, 9]: 21260 µg/mL | concentration [3, 10]: 15400 µg/mL | concentration [3, 11]: 55600 µg/mL | concentration [3, 12]: 55100 µg/mL | concentration [3, 13]: 62300 µg/mL
